The source made the active and inactive calls. No rule for the calls is given here.

This experiment deals with Broad 7084-01 inhibitor HTS, set 2. Briefly: single-concentration hits, screen 7084 set 2 (AID 977613).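 Also: host cells are infected with parasite promastigotes that become internalized.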
For `COc1cccc(C(=O)Nc2ccc3c(c2)C(=O)N(C)[C@H]2CC[C@@H](CC(=O)NCCCN4CCOCC4)O[C@H]2CO3)c1`, the active concentration was > 10 µM (inactive).

As to `CC(=O)N1[C@@H]2c3ccc(-c4cccc(F)c4)c(=O)n3C[C@@H]2[C@@H](CO)[C@@H]1C(=O)NCCCN(C)C`, the active concentration is > 10 µM (inactive).

As to `O=C(C[C@H]1CC[C@H]2[C@@H](COC[C@H](O)CN2C(=O)C2CC2)O1)NCc1ccncc1`, the active concentration is > 10 µM (inactive).

On to `CCCN1[C@H](C(=O)Nc2nccs2)[C@@H](CO)[C@@H]2Cn3c(ccc(-c4ccccc4OC)c3=O)[C@@H]21`, for which the active concentration was > 10 µM (inactive).

Regarding `O=C(C[C@@H]1CC[C@@H]2[C@H](COC[C@H](O)CN2S(=O)(=O)c2ccccc2)O1)N[C@H]1CCN(Cc2ccccc2)C1`, the active concentration was > 10 µM (inactive).

On to `Cn1cnc(S(=O)(=O)N2C[C@@H](O)COC[C@@H]3O[C@@H](CC(=O)NC4CCCC4)CC[C@H]32)c1`, for which the active concentration is > 10 µM (inactive).

As to `O=C(C[C@@H]1CC[C@@H]2[C@H](COC[C@H](O)CN2CC2CC2)O1)NCC1CC1`, the active concentration was > 10 µM (inactive).

In the case of `O=C(c1ccccc1F)N1CC(=O)N2[C@@H](CO)[C@@H](c3ccc(C#Cc4ccccc4)cc3)[C@@H]2C1`, the active concentration was > 10 µM (inactive).

Take `Cn1cnc(S(=O)(=O)N2C[C@@H](O)COC[C@H]3O[C@H](CC(=O)NC4CCCC4)CC[C@@H]32)c1`: the active concentration is > 10 µM (inactive).

On to `Cc1cccc(S(=O)(=O)N2C[C@H](O)COC[C@@H]3O[C@@H](CC(=O)Nc4ccccc4)CC[C@H]32)c1`, for which the active concentration was > 10 µM (inactive).

Regarding `N#C[C@@H]1[C@@H](c2ccccc2-c2cccc(F)c2)[C@@H](CO)N1C(=O)CN1CCOCC1`, the active concentration was > 10 µM (inactive).

`O=C(C[C@H]1CC[C@@H]2[C@H](COC[C@@H](O)CN2Cc2ccccc2)O1)NCCc1ccccc1`: the active concentration is > 10 µM (inactive).

For the molecule `O=C(NCC(F)(F)F)[C@H]1[C@H](CO)[C@H]2Cn3c(cccc3=O)[C@H]2N1Cc1cccc(F)c1`, the active concentration was > 10 µM (inactive).

On to `O=S(=O)(c1ccccc1)N1C[C@@H]2[C@H](c3ccccc31)[C@H](CO)N2Cc1ccccn1`, for which the active concentration was > 10 µM (inactive).

On to `O=C(CC1CC1)N1CC(=O)N2[C@H](CO)[C@H](c3ccc(C#Cc4cccc(F)c4)cc3)[C@H]2C1`, for which the active concentration is > 10 µM (inactive).

As for `OC[C@@H]1[C@@H](c2ccccc2)C2(CN(Cc3nccs3)C2)N1CCC(F)(F)F`, the active concentration was > 10 µM (inactive).

In the case of `O=C(C[C@H]1CC[C@H]2[C@@H](COC[C@@H](O)CN2S(=O)(=O)c2cccc(F)c2)O1)Nc1ccc(-c2ccccc2)cc1`, the active concentration is > 10 µM (inactive).

Take `COc1ccccc1-c1ccccc1[C@H]1[C@@H](C#N)N(C(=O)CN(C)C)[C@@H]1CO`: the active concentration is > 10 µM (inactive).

For the molecule `CCCC#Cc1ccc([C@@H]2[C@H]3CN(S(=O)(=O)c4ccccc4C)CC(=O)N3[C@H]2CO)cc1`, the active concentration is > 10 µM (inactive).

In the case of `N#C[C@H]1[C@@H](c2ccccc2-c2cccc(F)c2)[C@@H](CO)N1C(=O)CN1CCOCC1`, the active concentration is > 10 µM (inactive).

For the molecule `CN(C)C(=O)C[C@@H]1CC[C@H]2[C@@H](COC[C@@H](O)CN2CC2CC2)O1`, the active concentration is > 10 µM (inactive).

As for `CCS(=O)(=O)Nc1ccc2c(c1)C(=O)N(C)[C@@H]1CC[C@H](CC(=O)N[C@H]3CCN(Cc4ccccc4)C3)O[C@H]1CO2`, the active concentration is > 10 µM (inactive).

With `CS(=O)(=O)N1[C@H](CO)[C@@H](c2ccccc2)C12CN(Cc1ccccn1)C2`, the active concentration is > 10 µM (inactive).

On to `COc1ccc(C#Cc2ccc([C@@H]3[C@@H](CO)N4C(=O)CN(C(=O)c5ccc(F)cc5)C[C@@H]34)cc2)cc1`, for which the active concentration is > 10 µM (inactive).

As for `O=C(C1CCCCC1)N1C[C@@H]2[C@H](c3ccccc31)[C@H](CO)N2C(=O)Cc1ccccn1`, the active concentration was > 10 µM (inactive).

Turning to `O=C(c1cccc(F)c1)N1CCCCN2[C@H](CO)[C@@H](c3ccc(C#CC4(O)CCCC4)cc3)[C@H]2C1`, the active concentration was > 10 µM (inactive).

Consider `COc1ccccc1CNC(=O)C[C@@H]1CC[C@@H]2[C@H](COC[C@@H](O)CN2C(=O)Nc2ccccc2)O1`, for which the active concentration is > 10 µM (inactive).

On to `C[C@@H](NC(=O)[C@@H]1[C@@H](CO)[C@@H]2Cn3c(cccc3=O)[C@H]1N2CCC(F)(F)F)c1ccccc1`, for which the active concentration was > 10 µM (inactive).

`O=C(C[C@H]1CC[C@@H]2[C@H](COC[C@@H](O)CN2CC2CC2)O1)NCc1ccc(Cl)cc1`: the active concentration is > 10 µM (inactive).

In the case of `Cc1cc(C(=O)Nc2ccc3c(c2)C(=O)N(C)[C@@H]2CC[C@@H](CC(=O)NCc4ccc(-c5ccccc5)cc4)O[C@H]2CO3)no1`, the active concentration is > 10 µM (inactive).

In the case of `CCNC(=O)Nc1ccc2c(c1)C(=O)N(C)[C@H]1CC[C@H](CC(=O)N[C@@H](C)c3ccccc3)O[C@H]1CO2`, the active concentration was > 10 µM (inactive).

On to `COc1ccc2c3c(n(C)c2c1)[C@@H](CO)N(CC1CCCC1)CC31CN(C(=O)Nc2ccccc2)C1`, for which the active concentration is > 10 µM (inactive).

`Cc1noc(C)c1NC(=O)N1C[C@H](O)COC[C@H]2O[C@@H](CC(=O)NCC3CCCCC3)CC[C@@H]21`: the active concentration is > 10 µM (inactive).

On to `COc1ccc(-c2ccccc2[C@@H]2[C@@H](C#N)N(C(=O)NC3CCCCC3)[C@H]2CO)cc1`, for which the active concentration is > 10 µM (inactive).

With `CCS(=O)(=O)N1CC2(C1)[C@H](c1ccccc1)[C@@H](CO)N2C(=O)c1ccccc1`, the active concentration is > 10 µM (inactive).

For `CCNC(=O)Nc1ccc2c(c1)C(=O)N(C)[C@H]1CC[C@@H](CC(=O)N[C@@H](C)c3ccccc3)O[C@H]1CO2`, the active concentration was > 10 µM (inactive).

For `O=C(C1CCCCC1)N1CC(=O)N2[C@@H](CO)[C@@H](c3ccc(-c4ccccc4F)cc3)[C@@H]2C1`, the active concentration is > 10 µM (inactive).

As to `O=C(C[C@@H]1CC[C@@H]2[C@H](COC[C@@H](O)CN2C(=O)c2ccccc2F)O1)NCc1ccccc1`, the active concentration is > 10 µM (inactive).

With `O=C(Nc1ccccc1F)N1CC(=O)N2[C@H](C1)[C@H](c1ccc(-c3cccnc3)cc1)[C@@H]2CO`, the active concentration was > 10 µM (inactive).

As for `O=C(Nc1ccccc1F)N1CC(=O)N2[C@H](CO)[C@@H](c3ccc(-c4cccnc4)cc3)[C@@H]2C1`, the active concentration is > 10 µM (inactive).

On to `O=C(C[C@H]1CC[C@@H]2[C@H](COC[C@@H](O)CN2S(=O)(=O)c2ccc(F)cc2)O1)NCC1CC1`, for which the active concentration was > 10 µM (inactive).

`C[C@H](NC(=O)[C@H]1[C@H](CO)[C@H]2Cn3c(ccc(-c4ccncc4)c3=O)[C@H]2N1C)c1ccccc1`: the active concentration was > 10 µM (inactive).

For the molecule `O=C1CNC[C@H]2[C@H](c3ccc(C4=CCCC4)cc3)[C@@H](CO)N12`, the active concentration was > 10 µM (inactive).

Consider `O=C(NCc1cc(F)cc(F)c1)[C@@H]1[C@@H](CO)[C@@H]2Cn3c(cccc3=O)[C@H]1N2`, for which the active concentration was > 10 µM (inactive).

In the case of `CN1c2ccc(C#Cc3cccnc3)cc2[C@H]2[C@H](CCN2C(=O)C2CCCCC2)[C@H]1CO`, the active concentration is > 10 µM (inactive).

In the case of `COC(=O)[C@@H]1[C@@H](CO)[C@@H]2Cn3c(ccc(C4=CCCC4)c3=O)[C@@H]2N1C(=O)Cc1cccnc1`, the active concentration is > 10 µM (inactive).

Regarding `O=C(C[C@H]1CC[C@H]2[C@@H](COC[C@@H](O)CN2Cc2nccs2)O1)NCc1ccccc1`, the active concentration was > 10 µM (inactive).

`O=C(Nc1nccs1)[C@@H]1[C@@H](CO)[C@@H]2Cn3c(cccc3=O)[C@H]1N2C(=O)C1CCCC1`: the active concentration was > 10 µM (inactive).

For `O=C(c1ccccn1)N1CC2(C1)[C@H](c1ccccc1)[C@@H](CO)N2Cc1ccccc1`, the active concentration was > 10 µM (inactive).

With `O=C(Nc1ccc(-c2ccccc2)cc1)[C@@H]1[C@@H](CO)[C@@H]2Cn3c(cccc3=O)[C@H]1N2Cc1ccncc1`, the active concentration is > 10 µM (inactive).

For the molecule `CN1C(=O)c2cc(NC(=O)C3CCOCC3)ccc2OC[C@@H]2O[C@@H](CC(=O)NCCc3ccncc3)CC[C@H]21`, the active concentration was > 10 µM (inactive).

As for `COc1cccc(CN2[C@H](CO)[C@@H](c3ccccc3)C23CN(Cc2ccccc2OC)C3)c1`, the active concentration is > 10 µM (inactive).

For `O=C(C[C@H]1CC[C@H]2[C@@H](COC[C@@H](O)CN2Cc2ccc(Cl)cc2)O1)NCc1ccccc1Cl`, the active concentration is > 10 µM (inactive).

Consider `O=S(=O)(c1ccccc1)N1CCCCN2[C@@H](CO)[C@H](c3ccc(C#CC4CCCC4)cc3)[C@@H]2C1`, for which the active concentration was > 10 µM (inactive).

For the molecule `COc1ccc2c3c([nH]c2c1)[C@@H](CO)N(C(=O)Nc1c(C)noc1C)CC31CN(CC2CCOCC2)C1`, the active concentration is > 10 µM (inactive).

As to `O=C(Nc1ccccc1)N1C[C@@H]2[C@H](c3ccccc31)[C@H](CO)N2Cc1ccccc1Cl`, the active concentration is > 10 µM (inactive).

Turning to `COCC(=O)N1[C@@H](C#N)[C@@H](c2ccccc2-c2cccc(C)c2)[C@@H]1CO`, the active concentration is > 10 µM (inactive).

Consider `O=C(Nc1ccccc1F)N1CC(=O)N2[C@@H](CO)[C@H](c3ccc(-c4cccnc4)cc3)[C@@H]2C1`, for which the active concentration is > 10 µM (inactive).

In the case of `COc1ccccc1NC(=O)N1CC(=O)N2[C@H](CO)[C@H](c3ccc(-c4cccc(C)c4)cc3)[C@@H]2C1`, the active concentration was > 10 µM (inactive).

For `CN1CCN(C(=O)C[C@@H]2CC[C@H]3[C@@H](COC[C@@H](O)CN3CC3CC3)O2)CC1`, the active concentration was > 10 µM (inactive).

Regarding `CN1c2ccc(Br)cc2[C@H]2[C@H](CCN2S(=O)(=O)c2cccc(F)c2)[C@@H]1CO`, the active concentration is > 10 µM (inactive).

For `COCC(=O)N1[C@@H]2c3ccc(/C=C/c4ccccc4)c(=O)n3C[C@H]1[C@H](CO)[C@H]2C(=O)N1CCOCC1`, the active concentration was > 10 µM (inactive).

Consider `O=C(C[C@H]1CC[C@@H]2[C@H](COC[C@H](O)CN2C(=O)C2CC2)O1)NCc1ccncc1`, for which the active concentration is > 10 µM (inactive).

The values above are taken from PubChem BioAssay AID977613 (Broad Institute, 2014).
